Measured values taken from patent publication US6610677B2, “Pyrazole compounds useful as protein kinase inhibitors” (Vertex Pharmaceuticals Incorporated, priority 2000, dated 2003).

Experiments:
GSK-3β (AA 1-420) = biological target: T1, GSK-3β (AA 1-420) (Homo sapiens, UniProt P49841); experiment: Ki determination for the inhibition of GSK-3 (coupled enzyme system); type: biochemical; settings: 20 μM ATP, 300 μM peptide, 20 nM GSK-3β, 30° C
T1 construct: GSK-3β (AA 1-420)
Summary of the method: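 Ki values come from reaction rates over 10 min at 30 °C as a function of inhibitor concentration (12-point titration, 0.002–30 μM, 10 min preincubation). GSK-3β (AA 1-420, 20 nM) phosphorylated 300 μM primed peptide with 20 μM ATP; ADP formation followed by coupled NADH oxidation, pH 7.5.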

Aurora-2 = biological target: T2, Aurora-2 (Homo sapiens, UniProt O14965); experiment: Ki determination for the inhibition of Aurora-2 (coupled enzyme assay); type: biochemical; settings: 70 nM Aurora-2, peptide LRRASLG, 30° C
T2 sequence (O14965 1-403): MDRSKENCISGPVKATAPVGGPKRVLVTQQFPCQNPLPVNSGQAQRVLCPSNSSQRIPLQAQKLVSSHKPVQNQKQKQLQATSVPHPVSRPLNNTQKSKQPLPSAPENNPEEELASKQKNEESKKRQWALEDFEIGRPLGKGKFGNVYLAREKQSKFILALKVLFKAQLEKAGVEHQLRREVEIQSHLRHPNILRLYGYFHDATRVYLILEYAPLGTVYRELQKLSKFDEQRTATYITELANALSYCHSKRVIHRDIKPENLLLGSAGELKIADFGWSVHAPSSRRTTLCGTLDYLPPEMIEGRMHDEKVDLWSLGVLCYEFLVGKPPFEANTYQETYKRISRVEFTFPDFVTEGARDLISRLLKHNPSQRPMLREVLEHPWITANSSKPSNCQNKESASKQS
Experimental: Compounds were screened in the following manner for their ability to inhibit Aurora-2 using a standard coupled enzyme assay (Fox et al (1998) Protein Sci 7, 2249).
To an assay stock buffer solution containing 0.1M HEPES 7.5, 10 mM MgCl2, 1 mM DTT, 25 mM NaCl, 2.5 mM phosphoenolpyruvate, […], 30 mg/ml pyruvate kinase, 10 mg/ml lactate dehydrogenase, […], and 800 μM peptide (LRRASLG, American Peptide, Sunnyvale, Calif.) was added a DMSO solution of a compound of the present invention to a final concentration of 30 μM. The resulting mixture was incubated at 30° C. for 10 min. The reaction was initiated by the addition of 10 μL of Aurora-2 stock solution to give a final concentration of 70 nM in the assay. The rates of reaction were obtained by monitoring absorbance at 340 nm over a 5 minute read time at 30° C. using a BioRad Ultramark plate reader (Hercules, Calif.). The Ki values were determined from the rate data as a function of inhibitor concentration.

T1 sequence (P49841 whole entry, the tested form may be a part): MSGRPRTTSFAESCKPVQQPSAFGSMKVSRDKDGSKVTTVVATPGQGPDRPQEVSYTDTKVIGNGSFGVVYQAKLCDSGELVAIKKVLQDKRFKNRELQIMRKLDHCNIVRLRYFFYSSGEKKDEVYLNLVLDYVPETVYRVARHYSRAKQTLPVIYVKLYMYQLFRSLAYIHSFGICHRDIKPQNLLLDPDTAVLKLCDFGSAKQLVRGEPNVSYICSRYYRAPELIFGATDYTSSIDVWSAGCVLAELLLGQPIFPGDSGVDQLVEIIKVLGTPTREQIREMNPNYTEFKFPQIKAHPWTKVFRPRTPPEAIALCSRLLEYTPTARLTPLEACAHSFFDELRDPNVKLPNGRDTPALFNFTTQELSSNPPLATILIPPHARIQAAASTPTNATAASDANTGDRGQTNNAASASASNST

| Compound | Ki (GSK-3β (AA 1-420)) [nM] | Ki (Aurora-2) [nM] |
| --- | --- | --- |
| FC(F)(F)c1ccc2[nH]nc(Nc3nc(-c4ccccc4C(F)(F)F)nc4c3CCCC4)c2c1 [II-10, (5-Trifluoromethyl-1H-indazol-3-yl)-[2-(2-trifluoromethyl-phenyl)-5,6,7,8-tetrahydroquinazolin-4-yl]-amine] | < 100 | 1000 to 20000 |
| Nc1ccc(-c2nc(Nc3n[nH]c4c(F)cc(F)cc34)c3ccccc3n2)c(Cl)c1 [II-96, [2-(4-Amino-2-chloro-phenyl)-quinazolin-4-yl]-(5,7-Difluoro-1H-indazol-3-yl)-amine] | < 100 | 1000 to 20000 |
| Fc1cc(F)c2[nH]nc(Nc3nc(-c4cccnc4Cl)nc4ccccc34)c2c1 [II-94, [2-(2-Chloro-pyridin-3-yl)-quinazolin-4-yl]-(5,7-Difluoro-1H-indazol-3-yl)-amine] | < 100 | 100 to 1000 |
| Fc1ccc2[nH]nc(Nc3nc(-c4ccccc4C(F)(F)F)nc4ccccc34)c2c1 [II-59, (5-Fluoro-1H-indazol-3-yl)-[2-(2-trifluoromethyl-phenyl)-quinazolin-4-yl]-amine] | < 100 | 1000 to 20000 |
| FC(F)(F)c1ccccc1-c1nc(Nc2n[nH]c3ccccc23)cc(-c2ccccc2)n1 [II-20, (1H-Indazol-3-yl)-[6-phenyl-2-(2-trifluoromethyl-phenyl)-pyrimidin-4-yl]-amine] | < 100 | 100 to 1000 |
| CC(=O)c1ccccc1-c1nc(Nc2cc(C)[nH]n2)c2ccccc2n1 [II-39, [2-(2-Acetylphenyl)-quinazolin-4-yl]-(5-methyl-2H-pyrazol-3-yl)-amine] | < 100 | 100 to 1000 |
| FC(F)(F)c1ccccc1-c1nc(Nc2n[nH]c3ccc(Br)cc23)c2ccccc2n1 [II-79, (5-Bromo-1H-indazol-3-yl)-[2-(2-trifluoromethyl-phenyl)-quinazolin-4-yl]-amine] | < 100 | 100 to 1000 |
| COc1cccc2c(Nc3n[nH]c4c(F)cc(F)cc34)nc(-c3ccccc3C(F)(F)F)nc12 [II-93, (5,7-Difluoro-1H-indazol-3-yl)-[8-methoxy-2-(2-trifluoromethyl-phenyl)-quinazolin-4-yl]-amine] | < 100 | 100 to 1000 |
| Cc1ccc2[nH]nc(Nc3nc(-c4ccccc4C(F)(F)F)nc4ccccc34)c2c1 [II-61, (5-Methyl-1H-indazol-3-yl)-[2-(2-trifluoromethyl-phenyl)-quinazolin-4-yl]-amine] | < 100 | 1000 to 20000 |
| FC(F)(F)c1ccccc1-c1nc(Nc2n[nH]c3ncccc23)c2ccccc2n1 [II-99, (1H-Pyrazolo[3,4-b]pyridin-3-yl)-[2-(2-trifluoromethyl-phenyl)-quinazolin-4-yl]-amine] | < 100 | 100 to 1000 |
| Fc1ccc2[nH]nc(Nc3nc(-c4ccccc4Cl)nc4ccccc34)c2c1 [II-75, [2-(2-Chloro-phenyl)-quinazolin-4-yl]-(5-fluoro-1H-indazol-3-yl)-amine] | < 100 | 1000 to 20000 |
| Cc1cc(Nc2nc(-c3c(C)cccc3C)nc3ccccc23)n[nH]1 [II-38, [2-(2,6-Dimethylphenyl)-quinazolin-4-yl]-(5-methyl-2H-pyrazol-3-yl)-amine] | < 100 | 100 to 1000 |
| COc1cccc2c(Nc3n[nH]c4ccc(F)cc34)nc(-c3ccccc3C(F)(F)F)nc12 [II-91, (5-Fluoro-1H-indazol-3-yl)-[8-methoxy-2-(2-trifluoromethyl-phenyl)-quinazolin-4-yl]-amine] | < 100 | 1000 to 20000 |
| Cc1cc(Nc2nc(-c3ccc(F)cc3F)nc3ccccc23)n[nH]1 [II-34, [2-(2,4-Difluorophenyl)-quinazolin-4-yl]-(5-methyl-2H-pyrazol-3-yl)-amine] | < 100 | < 100 |
| O=[N+]([O-])c1ccc2[nH]nc(Nc3nc(-c4ccccc4C(F)(F)F)nc4ccccc34)c2c1 [II-70, (5-Nitro-1H-indazol-3-yl)-[2-(2-trifluoromethyl-phenyl)-quinazolin-4-yl]-amine] | < 100 | 100 to 1000 |
| FC(F)(F)c1ccc2c(Nc3nc(-c4ccccc4C(F)(F)F)nc4ccccc34)n[nH]c2c1 [II-69, (6-Trifluoromethyl-1H-indazol-3-yl)-[2-(2-trifluoromethyl-phenyl)-quinazolin-4-yl]-amine] | < 100 | 1000 to 20000 |
| FC(F)(F)c1ccc2[nH]nc(Nc3nc(-c4ccccc4Cl)nc4ccccc34)c2c1 [II-77, [2-(2-Chloro-phenyl)-quinazolin-4-yl]-(5-trifluoromethyl-1H-indazol-3-yl)-amine] | < 100 | 100 to 1000 |

Now from value to molecule:

| Ki (GSK-3β (AA 1-420)) [nM] | Ki (Aurora-2) [nM] | Compound |
| --- | --- | --- |
| 100 to 1000 | < 100 | Cc1cccc(-c2nc(Nc3cc(C)n[nH]3)c3ccccc3n2)c1 [III-50, [2-(3-Methylphenyl)-quinazolin-4-yl]-(5-methyl-2H-pyrazol-3-yl)-amine] |
| < 100 | < 100 | Cc1cc(Nc2nc(-c3cccc(C(F)(F)F)c3)nc3ccccc23)[nH]n1 [III-53, (5-Methyl-2H-pyrazol-3-yl)-[2-(3-trifluoromethylphenyl)-quinazolin-4-yl]-amine] |
| < 100 | < 100 | Clc1ccc(-c2nc(Nc3cc(C4CC4)n[nH]3)c3ccccc3n2)cc1Cl [III-46, (5-Cyclopropyl-2H-pyrazol-3-yl)-[2-(3,4-dichlorophenyl)-quinazolin-4-yl]-amine] |
| < 100 | < 100 | CC(=O)c1cccc(-c2nc(Nc3cc(C)n[nH]3)c3ccccc3n2)c1 [III-57, [2-(3-Acetylphenyl)-quinazolin-4-yl]-(5-methyl-2H-pyrazol-3-yl)-amine] |
| < 100 | 100 to 1000 | Fc1ccc2n[nH]c(Nc3nc(-c4ccccc4)nc4ccccc34)c2c1 [III-130, (5-Fluoro-1H-indazol-3-yl)-(2-phenyl-quinazolin-4-yl)-amine] |
| < 100 | < 100 | Cc1cc(Nc2nc(-c3cccnc3)nc3ccccc23)[nH]n1 [III-56, (5-Methyl-2H-pyrazol-3-yl)-(2-pyridin-3-yl-quinazolin-4-yl)-amine] |
| < 100 | < 100 | Cc1cc(Nc2nc(-c3cccc(C#N)c3)nc3ccccc23)[nH]n1 [III-54, [2-(3-Cyanophenyl)-quinazolin-4-yl]-(5-methyl-2H-pyrazol-3-yl)-amine] |
| < 100 | < 100 | Cc1cc(Nc2nc(-c3ccncc3)nc3ccccc23)n[nH]1 [III-9, (5-Methyl-2H-pyrazol-3-yl)-(2-pyridin-4-yl-quinazolin-4-yl)-amine] |
| < 100 | < 100 | CC1CCN(c2nc(Nc3cc(C4CC4)n[nH]3)c3nccc-3[nH]2)CC1 [IV-34, (5-Cyclopropyl-2H-pyrazol-3-yl)-[2-(4-methylpiperidin-1-yl)-pyrrolo[3,2-d]pyrimidin-4-yl]-amine] |
| 100 to 1000 | 1000 to 20000 | C=CCNC(=O)c1cc(Nc2nc(-c3ccccc3)nc3ccccc23)[nH]n1 [III-82, (5-Allylcarbamoyl-2H-pyrazol-3-yl)-(2-phenyl-quinazolin-4-yl)-amine] |
| 100 to 1000 | 100 to 1000 | c1ccc(-c2nc(Nc3n[nH]c4ccccc34)c3ccccc3n2)cc1 [III-1, (1H-Indazol-3-yl)-(2-phenyl-quinazolin-4-yl)-amine] |
| < 100 | < 100 | Cc1cc(Nc2nc(-c3cccc(CO)c3)nc3ccccc23)[nH]n1 [III-59, [2-(3-Hydroxymethylphenyl)-quinazolin-4-yl]-(5-methyl-2H-pyrazol-3-yl)-amine] |
| < 100 | < 100 | Cc1cc(Nc2nc(C3CCCCC3)nc3ccccc23)[nH]n1 [III-30, (2-Cyclohexyl-quinazolin-4-yl)-(5-methyl-2H-pyrazol-3-yl)-amine] |
| < 100 | 1000 to 20000 | FC(F)(F)c1ccccc1-c1nc(Nc2nc[nH]n2)c2ccccc2n1 [IX-47, (2H-[1,2,4]-Triazol-3-yl)-[2-(2-trifluoromethylphenyl)-quinazolin-4-yl]-amine] |
| 100 to 1000 | 1000 to 20000 | Fc1cccc2c(Nc3nc(-c4ccccc4)nc4ccccc34)[nH]nc12 [III-129, (7-Fluoro-1H-indazol-3-yl)-(2-phenyl-quinazolin-4-yl)-amine] |
| < 100 | < 100 | Cc1cc(Nc2nc(-c3cccc(C(C)C)c3)nc3ccccc23)[nH]n1 [III-55, [2-(3-Isopropylphenyl)-quinazolin-4-yl]-(5-methyl-2H-pyrazol-3-yl)-amine] |
